{
  "source": "paper PMC5740082",
  "about": "“Identification of a CARM1 Inhibitor with Potent In Vitro and In Vivo Activity in Preclinical Models of Multiple Myeloma” (Scientific Reports, 2017)",
  "key": {"NCI-H929": {"test_system": "NCI-H929", "assay": "Six-day cell proliferation assay (CellTiter-Glo)", "assay_type": "cell-based", "conditions": "Homo sapiens, 144 h; NCI-H929 (MM), 6 days; read-out: Average day 6 gIC50", "experimental": "(§1) Six-day cell proliferation assay\n(§2) Optimal cell seeding density was determined empirically for each cell lines by examining the gro wth of a wide ran ge o f seedin g densities in a 3 84-well formatto identify conditio ns that permitted maximal and continued proliferation for 6 days. Cells were plat ed in duplicate plates 24 hours before treatment with a 20- point two-fold dilution series of compound or 0.15%\n(§3) DMSO. Plates were incubated for 6 da ys at 37°C in 5% CO2. Cells were th en l ysed with CellTiter-Glo (CTG) (Pr omega) and chemiluminescent sign al was detected with an appropriat e microplate reader. In addition, an untreated plate of cells was harvested at the time of compound addition (T0) to quantif y the initial cell densit y. CTG values obtained after 6 days of treatment were expressed as a percent of the T0 value and plotted against compound concentration. […]\n(§4) Supplementary Table S 3. […] A p anel […]\n(§5) of cell lines was treated with EZM2302fo r 6da ys in a proliferation ass a y. Cell densit y (as assessed b y CellTiter-Gl o) at da y 0 was compared to day 6 to det ermine growth IC 50 values , calculated us i n g a f our parameter dose response equation.\n(§6) Cell Type According to Cell Type Category Cell L ine Name gIC50 Average day 6 Standard Replicates\n(§7) Supplier Modifier gIC50 (nM) Deviation […]\n(§8) Burkitt lymphoma lymphoma NC-37 > 7331 0 2 […]"}, "KMS-12PE": {"test_system": "KMS-12PE", "assay": "Six-day cell proliferation assay (CellTiter-Glo)", "assay_type": "cell-based", "conditions": "Homo sapiens, 144 h; KMS-12PE (MM, Pleural effusion), 6 days; read-out: Average day 6 gIC50", "experimental": "as §1, §2, §3, §4, §5, §6, §7, §8"}, "JJN3": {"test_system": "JJN3", "assay": "Six-day cell proliferation assay (CellTiter-Glo)", "assay_type": "cell-based", "conditions": "Homo sapiens, JJN-3, 144 h; JJN3 (Plasma cell leukemia), 6 days; read-out: Average day 6 gIC50", "experimental": "as §1, §2, §3, §4, §5, §6, §7, §8"}, "DOHH-2": {"test_system": "DOHH-2", "assay": "Six-day cell proliferation assay (CellTiter-Glo)", "assay_type": "cell-based", "conditions": "Homo sapiens, 144 h; DOHH-2 (tFL), 6 days; read-out: Average day 6 gIC50", "experimental": "as §1, §2, §3, §4, §5, §6, §7, §8"}, "AMO-1": {"test_system": "AMO-1", "assay": "Six-day cell proliferation assay (CellTiter-Glo)", "assay_type": "cell-based", "conditions": "Homo sapiens, AMO1, 144 h; AMO-1 (Plasmacytoma), 6 days; read-out: Average day 6 gIC50", "experimental": "as §1, §2, §3, §4, §5, §6, §7, §8"}, "MV-4-11": {"test_system": "MV-4-11", "assay": "Six-day cell proliferation assay (CellTiter-Glo)", "assay_type": "cell-based", "conditions": "Homo sapiens, MV4-11, 144 h; MV-4-11 (AML), 6 days; read-out: Average day 6 gIC50", "experimental": "as §1, §2, §3, §4, §5, §6, §7, §8"}, "KMS-11": {"test_system": "KMS-11", "assay": "Six-day cell proliferation assay (CellTiter-Glo)", "assay_type": "cell-based", "conditions": "Homo sapiens, 144 h; KMS-11 (Myeloma), 6 days; read-out: Average day 6 gIC50", "experimental": "as §1, §2, §3, §4, §5, §6, §7, §8"}, "DB": {"test_system": "DB", "assay": "Six-day cell proliferation assay (CellTiter-Glo)", "assay_type": "cell-based", "conditions": "Homo sapiens, 144 h; DB (GCB DLBCL), 6 days; read-out: Average day 6 gIC50", "experimental": "as §1, §2, §3, §4, §5, §6, §7, §8"}, "MOLP-2": {"test_system": "MOLP-2", "assay": "Six-day cell proliferation assay (CellTiter-Glo)", "assay_type": "cell-based", "conditions": "144 h; MOLP-2 (MM), 6 days; read-out: Average day 6 gIC50", "experimental": "as §1, §2, §3, §4, §5, §6, §7, §8"}, "GDM-1": {"test_system": "GDM-1", "assay": "Six-day cell proliferation assay (CellTiter-Glo)", "assay_type": "cell-based", "conditions": "Homo sapiens, 144 h; GDM-1 (AML), 6 days; read-out: Average day 6 gIC50", "experimental": "as §1, §2, §3, §4, §5, §6, §7, §8"}, "HT": {"test_system": "HT", "assay": "Six-day cell proliferation assay (CellTiter-Glo)", "assay_type": "cell-based", "conditions": "Homo sapiens, 144 h; HT (GCB DLBCL), 6 days; read-out: Average day 6 gIC50", "experimental": "as §1, §2, §3, §4, §5, §6, §7, §8"}, "KASUMI-1": {"test_system": "KASUMI-1", "assay": "Six-day cell proliferation assay (CellTiter-Glo)", "assay_type": "cell-based", "conditions": "Homo sapiens, 144 h; KASUMI-1 (AML), 6 days; read-out: Average day 6 gIC50", "experimental": "as §1, §2, §3, §4, §5, §6, §7, §8"}, "NC-37": {"test_system": "NC-37", "assay": "Six-day cell proliferation assay (CellTiter-Glo)", "assay_type": "cell-based", "conditions": "Homo sapiens, 144 h; NC-37 (Burkitt lymphoma), 6 days; read-out: Average day 6 gIC50", "experimental": "as §1, §2, §3, §4, §5, §6, §7, §8"}, "ARH-77": {"test_system": "ARH-77", "assay": "Six-day cell proliferation assay (CellTiter-Glo)", "assay_type": "cell-based", "conditions": "Homo sapiens, 144 h; ARH-77 (EBV+ lymphoblastoid), 6 days; read-out: Average day 6 gIC50", "experimental": "as §1, §2, §3, §4, §5, §6, §7, §8"}, "MOLM-16": {"test_system": "MOLM-16", "assay": "Six-day cell proliferation assay (CellTiter-Glo)", "assay_type": "cell-based", "conditions": "MOLM16, 144 h; MOLM-16 (AML), 6 days; read-out: Average day 6 gIC50", "experimental": "as §1, §2, §3, §4, §5, §6, §7, §8"}, "LP-1": {"test_system": "LP-1", "assay": "Six-day cell proliferation assay (CellTiter-Glo)", "assay_type": "cell-based", "conditions": "Homo sapiens, 144 h; LP-1 (MM), 6 days; read-out: Average day 6 gIC50", "experimental": "as §1, §2, §3, §4, §5, §6, §7, §8"}, "JM1": {"test_system": "JM1", "assay": "Six-day cell proliferation assay (CellTiter-Glo)", "assay_type": "cell-based", "conditions": "Homo sapiens, 144 h; JM1 (B-cell lymphoma), 6 days; read-out: Average day 6 gIC50", "experimental": "as §1, §2, §3, §4, §5, §6, §7, §8"}, "KMS-12BM": {"test_system": "KMS-12BM", "assay": "Six-day cell proliferation assay (CellTiter-Glo)", "assay_type": "cell-based", "conditions": "Homo sapiens, 144 h; KMS-12BM (MM, Bone marrow), 6 days; read-out: Average day 6 gIC50", "experimental": "as §1, §2, §3, §4, §5, §6, §7, §8"}, "HuNS1": {"test_system": "HuNS1", "assay": "Six-day cell proliferation assay (CellTiter-Glo)", "assay_type": "cell-based", "conditions": "144 h; HuNS1 (Transformed B-lymphoblastoid), 6 days; read-out: Average day 6 gIC50", "experimental": "as §1, §2, §3, §4, §5, §6, §7, §8"}, "MOLP-8": {"test_system": "MOLP-8", "assay": "Six-day cell proliferation assay (CellTiter-Glo)", "assay_type": "cell-based", "conditions": "Homo sapiens, 144 h; MOLP-8 (MM), 6 days; read-out: Average day 6 gIC50", "experimental": "as §1, §2, §3, §4, §5, §6, §7, §8"}, "L363": {"test_system": "L363", "assay": "Six-day cell proliferation assay (CellTiter-Glo)", "assay_type": "cell-based", "conditions": "Homo sapiens, L-363, 144 h; L363 (Plasma cell leukemia), 6 days; read-out: Average day 6 gIC50", "experimental": "as §1, §2, §3, §4, §5, §6, §7, §8"}, "MM.1R": {"test_system": "MM.1R", "assay": "Six-day cell proliferation assay (CellTiter-Glo)", "assay_type": "cell-based", "conditions": "144 h; MM.1R (MM), 6 days; read-out: Average day 6 gIC50", "experimental": "as §1, §2, §3, §4, §5, §6, §7, §8"}, "[1]": {"assay": "Pharmacokinetic study in mouse", "quoted_text": "An additional group of rats, cannulated in both the jugular and portal veins were dosed by oral gavage (10 mg/kg, in 0.5% methylcellulose in water). Approximately 110 μL of blood was taken from the animals by retro-orbital bleeding (mouse), tail vein (rat i.v.) or both jugular and portal vein sampling (rat p.o.) at pre-specified time intervals. The 2 h samples were split for parallel determination of blood and plasma concentration (ex vivo ratio). Blood samples were collected into K2-EDTA tubes and centrifuged to obtain plasma."}, "[2]": {"test_system": "55 receptors, ion channels and transporters", "assay": "ExpresSProfile (CEREP) screen", "assay_type": "binding", "conditions": "10 μM", "description": "[…]. […] […]. […] […]."}, "[3]": {"conditions": "male, CD-1, mouse, plasma, iv, 2 mg/kg"}, "[4]": {"conditions": "male, CD-1, mouse, plasma, po, 10 mg/kg"}},
  "data": [
    {"smiles": "CNC[C@@H](O)COc1ccc(Cl)c(-c2nc(-c3c(C)noc3C)c(C)c(N3CC4(CCN(C(=O)OC)CC4)C3)n2)c1", "note": "[EZM2302]", "values": [
      {"measurement": "IC50", "setting": "NCI-H929", "value": 862, "unit": "nM"},
      {"measurement": "IC50", "setting": "KMS-12PE", "value": "> 17.9", "unit": "µM"},
      {"measurement": "IC50", "setting": "JJN3", "value": "> 13", "unit": "µM"},
      {"measurement": "IC50", "setting": "DOHH-2", "value": 468, "unit": "nM"},
      {"measurement": "IC50", "setting": "AMO-1", "value": "> 25.9", "unit": "µM"},
      {"measurement": "IC50", "setting": "MV-4-11", "value": "> 7.86", "unit": "µM"},
      {"measurement": "IC50", "setting": "KMS-11", "value": "> 18.2", "unit": "µM"},
      {"measurement": "IC50", "setting": "DB", "value": "> 7.33", "unit": "µM"},
      {"measurement": "IC50", "setting": "MOLP-2", "value": "> 30.7", "unit": "µM"},
      {"measurement": "IC50", "setting": "GDM-1", "value": 20.7, "unit": "µM"},
      {"measurement": "IC50", "setting": "HT", "value": "> 7.33", "unit": "µM"},
      {"measurement": "IC50", "setting": "KASUMI-1", "value": 13.3, "unit": "µM"},
      {"measurement": "IC50", "setting": "NC-37", "value": "> 7.33", "unit": "µM"},
      {"measurement": "IC50", "setting": "ARH-77", "value": "> 4.27", "unit": "µM"},
      {"measurement": "IC50", "setting": "MOLM-16", "value": 6.54, "unit": "µM"},
      {"measurement": "IC50", "setting": "LP-1", "value": 2640, "unit": "nM"},
      {"measurement": "IC50", "setting": "JM1", "value": "> 7.33", "unit": "µM"},
      {"measurement": "IC50", "setting": "KMS-12BM", "value": "> 15.5", "unit": "µM"},
      {"measurement": "IC50", "setting": "HuNS1", "value": "> 19", "unit": "µM"},
      {"measurement": "IC50", "setting": "MOLP-8", "value": 6.62, "unit": "µM"},
      {"measurement": "IC50", "setting": "L363", "value": 16.1, "unit": "µM"},
      {"measurement": "IC50", "setting": "MM.1R", "value": 216, "unit": "nM"},
      {"measurement": "CL (plasma clearance)", "setting": "[1]; CD-1 mouse, IV Bolus 2 mg/kg, 2 mg/kg", "value": 43.2, "unit": "mL/min/kg"},
      {"measurement": "AUC(0-inf)", "setting": "[1]; [3]", "value": 772, "unit": "ng·h/mL"},
      {"measurement": "AUC(0-t)", "setting": "[1]; [3]", "value": 767, "unit": "ng·h/mL"},
      {"measurement": "Vd", "setting": "[1]; [3]", "value": 6.53, "unit": "L/kg"},
      {"measurement": "half-life", "setting": "[1]; [3]", "value": 253, "unit": "min"},
      {"measurement": "clearance", "setting": "[1]; male, CD-1, mouse, plasma, iv, 2 mg/kg, CL (plasma clearance), IV Bolus 2 mg/kg", "value": 43, "unit": "mL/min/kg"},
      {"measurement": "AUC(0-inf)", "setting": "[1]; [4]", "value": 577, "unit": "ng·h/mL"},
      {"measurement": "AUC(0-t)", "setting": "[1]; [4]", "value": 568, "unit": "ng·h/mL"},
      {"measurement": "Cmax", "setting": "[1]; [4]", "value": 177, "unit": "ng/mL"},
      {"measurement": "Tmax", "setting": "[1]; [4]", "value": 2, "unit": "h"},
      {"measurement": "bioavailability", "setting": "[1]; [4]", "value": 15, "unit": "%"},
      {"measurement": "half-life", "setting": "[1]; [4]", "value": 273, "unit": "min"},
      {"measurement": "inhibition or stimulation in any of the assays except KOP receptor", "setting": "[2]", "value": "≤ 40", "unit": "%"}
    ]}
  ]
}
